Active and inactive are the calls of the source.
Legend:
[1] = Luminescence-based cell-based high throughput dose response assay to identify activators of the DAF-12 from the parasite S. stercoralis (ssDAF-12).; type: functional
[2] = target: T1, Endoribonuclease toxin MazF (Escherichia coli K-12, UniProt P0AE70); test: substrate-only fluorescence increase artefacts – biochemical, single-stranded RNase substrate, counter-screen for MazEF activator project, dose response (AID 588502); type: functional
T1 sequence (P0AE70 whole entry): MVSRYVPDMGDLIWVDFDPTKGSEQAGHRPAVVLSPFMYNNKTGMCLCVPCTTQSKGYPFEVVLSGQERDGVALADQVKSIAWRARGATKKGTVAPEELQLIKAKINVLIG

[3] = target: T2, Oxysterols receptor LXR-beta (Homo sapiens, UniProt P55055); test: LXR agonists, Gal4 luciferase reporter, dose response, counter-screen for ssDAF-12 agonist project, cell-based, luminescence, HEK293, S. stercoralis campaign (AID 720737); type: functional; conditions: read-out: IC50 (the source's name)
T2 sequence (P55055 whole entry): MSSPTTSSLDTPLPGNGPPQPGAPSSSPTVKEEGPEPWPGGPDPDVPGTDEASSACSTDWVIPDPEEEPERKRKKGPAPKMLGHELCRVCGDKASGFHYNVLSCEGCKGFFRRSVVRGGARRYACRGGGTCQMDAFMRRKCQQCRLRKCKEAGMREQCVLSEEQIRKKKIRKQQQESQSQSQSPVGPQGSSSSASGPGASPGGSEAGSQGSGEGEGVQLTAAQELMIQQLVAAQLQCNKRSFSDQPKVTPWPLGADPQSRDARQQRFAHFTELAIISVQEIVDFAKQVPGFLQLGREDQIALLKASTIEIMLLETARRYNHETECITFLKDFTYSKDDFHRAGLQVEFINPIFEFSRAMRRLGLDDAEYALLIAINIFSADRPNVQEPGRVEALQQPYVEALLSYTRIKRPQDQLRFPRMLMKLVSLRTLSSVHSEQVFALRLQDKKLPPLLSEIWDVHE

[4] = target: T1, Endoribonuclease toxin MazF; test: activation of MazEF endoribonuclease cleavage – biochemical, fluorescence, single-stranded RNA substrate, uHTS hits, dose response (AID 588481); type: functional
[5] = target: T3, DNA repair protein RAD52 homolog (Homo sapiens, UniProt P43351); type: functional, biochemical
T3 sequence (P43351 whole entry): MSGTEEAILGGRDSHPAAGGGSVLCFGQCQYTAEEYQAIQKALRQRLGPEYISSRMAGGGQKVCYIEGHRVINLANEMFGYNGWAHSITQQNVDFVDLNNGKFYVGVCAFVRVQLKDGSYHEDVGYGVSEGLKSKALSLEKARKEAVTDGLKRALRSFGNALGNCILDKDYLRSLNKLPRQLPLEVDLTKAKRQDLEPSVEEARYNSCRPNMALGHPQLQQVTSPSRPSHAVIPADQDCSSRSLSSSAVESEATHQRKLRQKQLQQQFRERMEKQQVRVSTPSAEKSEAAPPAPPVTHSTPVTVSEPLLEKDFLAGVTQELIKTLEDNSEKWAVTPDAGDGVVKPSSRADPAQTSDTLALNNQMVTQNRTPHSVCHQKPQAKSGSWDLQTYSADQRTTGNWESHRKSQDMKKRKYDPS

[6] = target: T4, High affinity choline transporter 1 (Homo sapiens, UniProt Q9GZV3); test: human choline transporter blockers, potency – cell-based, 5-point CRC, membrane potential dye, dose response (AID 504840); type: functional
T4 sequence (Q9GZV3 whole entry): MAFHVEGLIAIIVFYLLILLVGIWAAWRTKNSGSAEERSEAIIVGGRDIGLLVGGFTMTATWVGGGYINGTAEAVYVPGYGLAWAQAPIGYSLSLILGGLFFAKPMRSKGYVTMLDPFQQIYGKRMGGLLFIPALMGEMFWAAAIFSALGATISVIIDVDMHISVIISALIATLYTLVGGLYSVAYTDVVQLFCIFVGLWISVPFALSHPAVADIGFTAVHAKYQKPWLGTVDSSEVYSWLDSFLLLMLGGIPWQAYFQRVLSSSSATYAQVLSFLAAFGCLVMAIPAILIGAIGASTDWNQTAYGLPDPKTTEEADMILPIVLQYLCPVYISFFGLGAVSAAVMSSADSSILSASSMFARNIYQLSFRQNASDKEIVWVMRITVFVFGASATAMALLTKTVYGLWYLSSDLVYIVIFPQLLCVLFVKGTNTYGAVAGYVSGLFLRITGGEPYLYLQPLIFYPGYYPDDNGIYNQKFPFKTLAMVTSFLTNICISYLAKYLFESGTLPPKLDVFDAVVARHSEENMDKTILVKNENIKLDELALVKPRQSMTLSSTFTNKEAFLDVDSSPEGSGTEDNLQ

[7] = viability loss in THP-1 monocytes – THP-1 cells, cytotoxicity control for Vif-APOBEC3G degradation inhibitor project, dose response (AID 1117359); type: functional; conditions: THP-1
[8] = reduced cellular PGC1a acetyl-lysine signal – cell-based, cherry-picked samples, dose response (AID 720514); type: functional;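 note: potency may reflect raised or lowered acetylation signal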
Caspase-6 = target: T5, Caspase-6 (Homo sapiens, UniProt P55212); test: inhibition of CASP6 peptide cleavage – biochemical, VEID-R110 fluorescence, cherry-pick, dose response (AID 720632)
T5 sequence (P55212 whole entry): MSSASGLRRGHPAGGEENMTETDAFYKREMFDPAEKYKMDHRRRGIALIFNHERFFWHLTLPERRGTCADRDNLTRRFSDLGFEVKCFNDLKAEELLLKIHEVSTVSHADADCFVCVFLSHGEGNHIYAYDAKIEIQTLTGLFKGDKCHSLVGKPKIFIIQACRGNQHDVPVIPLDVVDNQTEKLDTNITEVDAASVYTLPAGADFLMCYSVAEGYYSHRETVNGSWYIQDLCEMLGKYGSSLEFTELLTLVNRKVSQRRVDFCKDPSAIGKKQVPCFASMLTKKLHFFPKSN

[9] = fluconazole-exposed Candida albicans growth modulators – fluorescence, retest, confirmation (AID 2467); type: functional, cell-based
Streptokinase A = target: T6, Streptokinase A (Streptococcus pyogenes serotype M1, UniProt P10520); test: viability-normalized secreted streptokinase activity reduction – plasminogen activation absorbance, OD405, dose response (AID 1914); type: functional, Streptococcus pyogenes M1 GAS;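 note: secreted streptokinase activity via plasminogen activation per viability signal from cell pellet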
T6 sequence (P10520 whole entry): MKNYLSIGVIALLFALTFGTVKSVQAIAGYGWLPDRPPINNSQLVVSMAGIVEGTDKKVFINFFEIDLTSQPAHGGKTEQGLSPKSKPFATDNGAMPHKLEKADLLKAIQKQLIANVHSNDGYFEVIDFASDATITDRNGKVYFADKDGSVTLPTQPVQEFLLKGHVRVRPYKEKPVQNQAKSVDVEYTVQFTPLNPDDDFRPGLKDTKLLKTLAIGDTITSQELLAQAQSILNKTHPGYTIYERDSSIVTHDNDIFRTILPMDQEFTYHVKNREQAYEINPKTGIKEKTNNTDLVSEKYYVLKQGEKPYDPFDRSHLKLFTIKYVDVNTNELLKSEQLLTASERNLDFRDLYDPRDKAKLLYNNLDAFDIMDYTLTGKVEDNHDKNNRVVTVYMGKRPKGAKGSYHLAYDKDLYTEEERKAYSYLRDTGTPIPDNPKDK

[10] = NIH-3T3 fibroblast cytotoxicity, dose response, cytotoxicity control, cell-based, fluorescence, Alamar Blue, secondary assay (AID 2327); type: functional;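 note: NIH-3T3 mouse fibroblasts cultured with fluconazole at 8 µg/mL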
[11] = system: Streptococcus sp. 'group A'; test: Streptococcus pyogenes SK(-)GAS viability under kanamycin – luminescence, BacTiterGlo, confirmation, counter-screen for streptokinase expression inhibitor project, dose response (AID 1900); type: functional, organism-based
[12] = Trypanosoma cruzi growth suppression in host cells – NIH3T3 host cells, beta-gal luminescence, confirmation (AID 2044); type: functional, cell-based;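 note: intracellular parasites grown in NIH/3T3 mouse fibroblasts as host cells; luminescent beta-galactosidase reporter signal from transgenic T. cruzi replicating inside host cells; inhibitors lower the luminescence signal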
[13] = NIH3T3 cell viability loss – ATP luminescence, mouse fibroblasts, counter-screen, dose response (AID 2010); type: functional, cell-based;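 note: cells exposed to compound for about 90 hours before reading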
Streptococcus = test: GAS UMAA2166 growth inhibition – luminescence, BacTiterGlo, counter-screen for streptokinase expression inhibitor project, dose response (AID 1915); type: functional, organism-based;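 note: potency for reduction of bacterial viability or growth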
[14] = microbe, parasite or virus in culture; type: functional; conditions: Mycobacterium tuberculosis
[15] = general cell-killing toxicity readout – plate reader, dry powder samples, cytotoxicity control for PAX8 inhibitor project, dose response (AID 743021); type: functional, cell-based
[16] = OVCAR8 cell viability loss – plate reader, dry powder samples, PAX8 project, dose response (AID 743197); type: functional, cell-based; conditions: OVCAR-8
Paired box protein Pax-8 = Paired box protein Pax-8 (Homo sapiens, UniProt Q06710); test: PAX8 transcriptional activity inhibition in RMG-I – RMG-I cells, luciferase, cherry-pick, dose response (AID 687027); type: functional, cell-based;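 note: luciferase reporter driven by Pax8 target thyroperoxidase promoter measured by SteadyGlo luminescence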
Sequence of Paired box protein Pax-8 (Q06710 whole entry): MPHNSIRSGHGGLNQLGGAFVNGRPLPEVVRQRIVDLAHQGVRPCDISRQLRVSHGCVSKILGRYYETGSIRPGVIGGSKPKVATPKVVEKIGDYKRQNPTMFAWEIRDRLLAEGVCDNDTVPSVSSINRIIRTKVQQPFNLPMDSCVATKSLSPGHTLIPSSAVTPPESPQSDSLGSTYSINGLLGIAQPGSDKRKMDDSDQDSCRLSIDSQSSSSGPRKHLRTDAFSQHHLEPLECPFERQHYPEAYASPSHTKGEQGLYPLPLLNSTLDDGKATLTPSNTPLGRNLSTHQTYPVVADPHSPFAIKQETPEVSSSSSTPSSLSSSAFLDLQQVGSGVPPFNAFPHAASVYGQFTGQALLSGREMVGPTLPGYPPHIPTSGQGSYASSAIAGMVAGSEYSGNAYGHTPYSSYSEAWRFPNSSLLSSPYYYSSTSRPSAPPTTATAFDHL

[17] = OVCAR-3 cell viability loss – plate reader, dry powder samples, PAX8 inhibitor project, dose response (AID 743044); type: functional, cell-based
[18] = IGROV1 cell killing – plate reader, dry powder samples, PAX8 inhibitor project, dose response (AID 743043); type: functional, cell-based; conditions: IGROV-1
[19] = toxicity to human hepatoma HepG2 cells – cell-based, cherry-picked samples, cytotoxicity control, dose response (AID 1159577); type: functional
[20] = P. falciparum Dd2 growth inhibitors, dose response, SYBR Green, cherry-picked samples (AID 1159567); type: functional, cell-based
Estrogen receptor beta [21] = target: T7, Estrogen receptor beta (Homo sapiens, UniProt Q92731);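 note: recombinant ER-beta bound to coactivator SRC1 peptide in presence of estradiol agonist; inhibitors block coactivator peptide binding and lower the FRET signal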
T7 sequence (Q92731 whole entry): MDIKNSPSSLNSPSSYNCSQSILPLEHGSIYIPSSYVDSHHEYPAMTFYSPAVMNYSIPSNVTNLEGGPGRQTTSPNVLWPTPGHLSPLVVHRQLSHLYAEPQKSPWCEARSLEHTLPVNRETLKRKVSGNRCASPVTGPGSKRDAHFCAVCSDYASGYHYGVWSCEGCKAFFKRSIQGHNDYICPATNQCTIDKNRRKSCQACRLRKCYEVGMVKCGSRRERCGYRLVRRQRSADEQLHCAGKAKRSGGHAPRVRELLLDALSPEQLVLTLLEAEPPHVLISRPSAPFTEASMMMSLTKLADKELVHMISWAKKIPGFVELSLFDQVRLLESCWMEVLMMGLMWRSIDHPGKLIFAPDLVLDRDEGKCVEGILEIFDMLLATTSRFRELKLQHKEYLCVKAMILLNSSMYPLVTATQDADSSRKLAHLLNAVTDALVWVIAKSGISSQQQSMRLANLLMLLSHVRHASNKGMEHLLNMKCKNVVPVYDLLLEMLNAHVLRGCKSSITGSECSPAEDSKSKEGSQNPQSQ

Estrogen receptor beta [22] = target: T7, Estrogen receptor beta; test: blockers of SRC-3 recruitment to ERβ – biochemical, ELISA, streptavidin-HRP readout, orthogonal assay, confirmation (AID 1060)
[23] = Luminescence Cell-Based Dose Confirmation HTS to Identify Inhibitors of Platelet Dense Granule Release. [Related pubchem assays: 1663 (Primary HTS), 1678 (Summary of Project)]; type: functional
[24] = target: Luciferin 4-monooxygenase (Photinus pyralis, UniProt P08659); test: inhibition of purified Photinus pyralis luciferase – biochemical, luminescence, dose response (AID 1891)
Sequence of Luciferin 4-monooxygenase (P08659 whole entry): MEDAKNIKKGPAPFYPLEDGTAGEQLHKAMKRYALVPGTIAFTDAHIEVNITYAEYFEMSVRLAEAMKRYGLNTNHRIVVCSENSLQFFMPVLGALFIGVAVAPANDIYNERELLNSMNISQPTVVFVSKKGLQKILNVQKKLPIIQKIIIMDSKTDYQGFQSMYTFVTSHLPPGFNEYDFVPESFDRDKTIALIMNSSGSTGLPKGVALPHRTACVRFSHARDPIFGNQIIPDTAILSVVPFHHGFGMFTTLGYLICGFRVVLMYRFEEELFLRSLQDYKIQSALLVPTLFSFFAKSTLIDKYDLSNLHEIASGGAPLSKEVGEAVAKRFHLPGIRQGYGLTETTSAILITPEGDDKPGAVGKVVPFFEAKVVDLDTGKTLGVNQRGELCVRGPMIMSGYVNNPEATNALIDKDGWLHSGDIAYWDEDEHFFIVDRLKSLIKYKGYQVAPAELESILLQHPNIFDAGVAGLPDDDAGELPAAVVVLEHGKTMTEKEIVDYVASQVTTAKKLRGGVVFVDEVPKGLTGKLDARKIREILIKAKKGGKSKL

## CCn1c(C)cc(C=C2C(=O)c3ccccc3C2=O)c1C
[1]
  IC50: > 67.5 µM (inactive)
[2]
  EC50: 62.8 µM (inactive)
[3]
  EC50: > 67.5 µM (inactive)
[4]
  EC50: 44.5 µM (inactive)

## CCN1CCN(c2cc(C)c3cc(NC(=S)N4CCOCC4)ccc3n2)CC1
[5]
  AC50: 22 µM (active)
[6]
  IC50: 12.6 µM (active)

## CCOc1ccc(C(=O)NC(=S)Nc2ccc(N3CCC(C)CC3)cc2)cc1[N+](=O)[O-]
[7]
  CC50: > 40 µM (active)

## CCCCOc1ccc(/C=C/C(=O)OCC(=O)c2c(N)n(C)c(=O)n(C)c2=O)cc1OCC
[8]
  AC50: 12.6 µM (active)

## COc1ccc(-c2nn(-c3ccccc3)cc2C(=O)Nc2cccc(C(=O)O)c2)cc1[N+](=O)[O-]
Caspase-6
  AC50: 5.45 µM (active)

## COc1ccc(-c2nc3ccccc3c(=O)o2)cc1OC
[8]
  AC50: 28.1 µM (active)

## CC(C)c1ccc(-c2nnn(CC(=O)N3CCCCC3)n2)cc1
[8]
  AC50: 24.3 µM (active)

## COC(=O)[C@]1(C)N[C@H](CN(C)C(C)=O)[C@@H]2C(=O)N(Cc3ccccc3)C(=O)[C@@H]21
[1]
  IC50: > 67.5 µM (inactive)
[3]
  EC50: > 67.5 µM (inactive)

## O=C(N/N=C\C=C\c1ccc([N+](=O)[O-])o1)c1cccs1
[9]
  EC50: 0.068 µM (active)
Streptokinase A
  EC50: > 150 µM (not active)
[10]
  EC50: > 160 µM (inconclusive)
[11]
  EC50: 3.56 µM (active)
[12]
  EC50: 0.243 µM (active)
[13]
  EC50: 5.29 µM (active)
Streptococcus
  EC50: 6.16 µM (active)
[14]
  CC50: 30.6 µM (active)
Caspase-6
  AC50: 7.38 µM (active)

## O=C(O)c1ccccc1NS(=O)(=O)c1ccc(N/N=C/c2cccc(O)c2O)c([N+](=O)[O-])c1
Caspase-6
  AC50: 6.45 µM (active)

## C[C@H](CO)N1C[C@H](C)[C@@H](CN(C)C(=O)Cc2ccccc2)OCCCC[C@H](C)Oc2ccc(NC(=O)Nc3ccc(C(F)(F)F)cc3)cc2C1=O
[15]
  AC50: 48.5 µM (active)
[16]
  AC50: > 70 µM (inactive)
Paired box protein Pax-8
  AC50: 4.34 µM (active)

## C[C@H]1CCCCO[C@H](CN(C)C(=O)Nc2ccc(C(F)(F)F)cc2)[C@@H](C)CN([C@@H](C)CO)C(=O)c2cc(NC(=O)Nc3ccccc3)ccc2O1
[17]
  AC50: 22.1 µM (active)
[18]
  AC50: 59.3 µM (active)
[16]
  AC50: > 70 µM (inactive)
Paired box protein Pax-8
  AC50: 3.02 µM (active)

## CCCC#Cc1ccc([C@H]2[C@@H](CO)N3CCCCN(S(=O)(=O)Cc4ccccc4)C[C@H]23)cc1
[19]
  AC50: 11.9 µM (active)
[17]
  AC50: 23.5 µM (active)
[20]
  AC50: 2.67 µM (active)
[18]
  AC50: 30.9 µM (active)
[16]
  AC50: > 70 µM (inactive)
Paired box protein Pax-8
  AC50: 20.5 µM (active)

## CC(=N)/C(C#N)=C(/O)CSc1nnnn1-c1ccc(C)cc1
Estrogen receptor beta [21]
  IC50: 13.7 µM (active)
Estrogen receptor beta [22]
  IC50: 0.345 µM (not active)

## O=C(Nc1ccccc1)N1CCCCN2[C@@H](CO)[C@@H](c3ccc(-c4ccccc4)cc3)[C@@H]2C1
[19]
  AC50: 9.01 µM (active)
[20]
  AC50: 4.43 µM (active)

## O=S(=O)(c1ccccc1)N1C[C@@H]2N[C@H](C1)[C@@H]2c1ccc(-c2ccc(F)cc2)cc1
[19]
  AC50: 10.9 µM (active)
[20]
  AC50: 5.34 µM (active)

## COc1cccc(CN(C)C[C@H]2OCc3ccccc3-c3c(n(C)c4ccccc34)C(=O)N([C@@H](C)CO)C[C@H]2C)c1
[19]
  AC50: 18 µM (active)
[20]
  AC50: 1.62 µM (active)

## Cc1ccc(Nc2nc(N)c3ccccc3n2)cc1Cl
[23]
  EC50: 4.99 µM (active)
[24]
  EC50: 0.528 µM (active)
[1]
  IC50: > 67.6 µM (inactive)
[3]
  EC50: > 67.6 µM (inactive)
